The target of assay [1] is T1, Phospho-EGFR (Tyr1068) in H1975 cells (Homo sapiens, UniProt P00533, L858R/T790M).
T1 construct: host or cells: H1975
Nature of the assay: HTRF pEGFR/total EGFR in H1975 cells. Type of assay: cell-based. The settings on record: ratio pEGFR/total EGFR, compound 3 hours. As for the experimental part: (§1) H1975 cells (ATCC CRL-5908) were plated at 20,000 cells per well in 96 well plates and placed at 37° C. 5% CO2. Once adhered (after 24 h) cells were treated with compounds dissolved in DMSO at a final concentration of 0.1% DMSO in media. Compounds were diluted in media then added to cells for 3 hours in duplicate. Compound and media were removed from the cells, then 50 ul of HTRF lysis buffer is added (lysis buffer was diluted from 4× stock to 1× in DI water, with 1% blocking agent also added). Cells were lysed on a plate shaker (2000 rpm) for 30 minutes at room temperature. pEGFR expression was monitored using the Cisbio Phospho-EGFR (Tyri068) cellular kit (64EG1PEH). Total EGFR expression was monitored using the Cisbio Total EGFR cellular kit (64NG1PEH) as per manufacturer's instructions. Fluorescence emission was read at two different wavelengths (665 nm and 620 nm) on a PheraStar. Results were calculated as ratio of pEGFR/total EGFR and then percentage of 0 μM control.
Background: In TR-FRET formats the signal depends on donor and acceptor labels being close together.

Assay [2] deals with T2, Phospho-EGFR (Tyr1068) in H1975 C797S cells (CRISPR-edited EGFR C797S) (Homo sapiens, UniProt P00533, C797S/L858R/T790M).
T2 construct: host or cells: H1975 C797S (CRISPR-edited)
T2 sequence (P00533 25-1210 T790M/C797S/L858R): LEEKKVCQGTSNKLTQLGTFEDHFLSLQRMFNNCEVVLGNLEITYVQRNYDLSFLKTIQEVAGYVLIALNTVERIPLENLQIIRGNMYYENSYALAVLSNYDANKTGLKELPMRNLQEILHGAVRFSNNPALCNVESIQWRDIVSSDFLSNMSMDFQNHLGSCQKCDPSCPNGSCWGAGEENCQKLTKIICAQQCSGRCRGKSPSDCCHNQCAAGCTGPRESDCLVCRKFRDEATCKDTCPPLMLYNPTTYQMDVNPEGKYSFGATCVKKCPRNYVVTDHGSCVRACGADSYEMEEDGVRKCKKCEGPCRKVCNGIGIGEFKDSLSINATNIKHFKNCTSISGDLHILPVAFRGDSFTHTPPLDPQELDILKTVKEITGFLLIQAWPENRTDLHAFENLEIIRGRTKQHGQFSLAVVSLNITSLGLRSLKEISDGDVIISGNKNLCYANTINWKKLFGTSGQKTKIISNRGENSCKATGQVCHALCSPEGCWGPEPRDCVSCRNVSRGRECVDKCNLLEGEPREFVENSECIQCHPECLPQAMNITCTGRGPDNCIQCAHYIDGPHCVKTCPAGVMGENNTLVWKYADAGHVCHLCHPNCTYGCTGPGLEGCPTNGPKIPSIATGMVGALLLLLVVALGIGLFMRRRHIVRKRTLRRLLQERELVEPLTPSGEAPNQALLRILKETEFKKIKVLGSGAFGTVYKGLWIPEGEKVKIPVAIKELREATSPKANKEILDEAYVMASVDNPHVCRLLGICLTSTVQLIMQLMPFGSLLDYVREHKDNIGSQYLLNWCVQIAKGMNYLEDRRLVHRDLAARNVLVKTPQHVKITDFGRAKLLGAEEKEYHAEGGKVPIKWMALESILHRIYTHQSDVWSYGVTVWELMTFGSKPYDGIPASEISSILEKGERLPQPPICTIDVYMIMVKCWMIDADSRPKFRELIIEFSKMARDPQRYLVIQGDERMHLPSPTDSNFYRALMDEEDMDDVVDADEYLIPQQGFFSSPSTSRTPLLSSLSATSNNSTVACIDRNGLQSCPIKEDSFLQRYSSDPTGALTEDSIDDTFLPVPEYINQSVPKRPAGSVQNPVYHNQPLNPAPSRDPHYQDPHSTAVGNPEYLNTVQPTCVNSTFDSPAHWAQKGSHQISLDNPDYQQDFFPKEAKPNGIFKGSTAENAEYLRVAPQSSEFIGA
Put plainly: HTRF pEGFR/total EGFR in H1975 C797S cells. The class given is cell-based. The following applies: ratio pEGFR/total EGFR, compound 3 hours. How it is done: as §1, with “[…]. Once” for “H1975 cells (ATCC CRL-5908) were plated at 20,000 cells per well in 96 well plates and placed at 37° C. 5% CO2. Once”, “buffer was” for “buffer is”, “Phospho-EGFR (Tyr1068)” for “Phospho-EGFR (Tyri068)”

The target in assay [3] is T3, Phospho-EGFR (Tyr1068) in A431 cells (Homo sapiens, UniProt P00533).
T3 construct: endogenous in cells; host or cells: A431
T3 sequence (P00533 25-1210): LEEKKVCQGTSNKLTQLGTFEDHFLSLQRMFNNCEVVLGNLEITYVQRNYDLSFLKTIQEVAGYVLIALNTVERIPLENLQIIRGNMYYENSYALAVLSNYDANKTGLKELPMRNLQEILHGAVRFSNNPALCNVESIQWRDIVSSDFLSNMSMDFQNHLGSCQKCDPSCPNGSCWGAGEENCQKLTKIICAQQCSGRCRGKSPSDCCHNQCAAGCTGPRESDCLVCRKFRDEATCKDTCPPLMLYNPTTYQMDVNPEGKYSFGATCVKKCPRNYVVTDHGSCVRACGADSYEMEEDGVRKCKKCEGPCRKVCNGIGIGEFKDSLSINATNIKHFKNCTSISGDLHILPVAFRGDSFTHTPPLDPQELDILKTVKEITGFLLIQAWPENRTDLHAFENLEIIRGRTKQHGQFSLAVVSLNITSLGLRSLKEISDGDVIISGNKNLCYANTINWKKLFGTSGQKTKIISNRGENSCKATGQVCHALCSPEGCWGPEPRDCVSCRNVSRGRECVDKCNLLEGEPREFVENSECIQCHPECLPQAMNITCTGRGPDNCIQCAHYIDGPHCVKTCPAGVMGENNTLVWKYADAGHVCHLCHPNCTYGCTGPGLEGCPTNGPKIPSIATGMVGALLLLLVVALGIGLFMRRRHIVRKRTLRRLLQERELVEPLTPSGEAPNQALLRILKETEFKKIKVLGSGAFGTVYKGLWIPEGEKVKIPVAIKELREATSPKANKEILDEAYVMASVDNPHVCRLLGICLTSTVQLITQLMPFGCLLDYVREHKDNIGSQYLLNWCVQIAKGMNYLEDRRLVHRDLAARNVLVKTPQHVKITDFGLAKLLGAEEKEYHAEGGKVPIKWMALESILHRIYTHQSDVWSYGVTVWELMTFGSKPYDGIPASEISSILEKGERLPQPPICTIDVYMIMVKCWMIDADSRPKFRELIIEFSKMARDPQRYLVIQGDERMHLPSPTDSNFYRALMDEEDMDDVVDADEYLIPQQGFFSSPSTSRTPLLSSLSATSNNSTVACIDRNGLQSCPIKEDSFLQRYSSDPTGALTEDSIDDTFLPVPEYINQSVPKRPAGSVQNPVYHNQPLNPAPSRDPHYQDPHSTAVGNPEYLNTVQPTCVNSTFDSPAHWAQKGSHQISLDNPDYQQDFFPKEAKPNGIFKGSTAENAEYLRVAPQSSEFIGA
Put plainly: HTRF pEGFR/total EGFR in A431 cells with EGF stimulation. The class given is cell-based. The settings on record: ratio pEGFR/total EGFR, compound 2.5 hours then 100 ng/ml EGF 30 mins. As for the experimental part:
Cells were plated at 20,000 cells per well in 96 well plates and placed at 37° C. 5% CO2. Once adhered (after 24 h) cells were treated with compounds dissolved in DMSO at a final concentration of 0.1% DMSO in media. Compounds were diluted in media then added to cells for 2.5 hours in duplicate, 100 ng/ml EGF (ThermoFisher, PHG0311) was added to all compound treated cells as well as a control for 30 mins. Compound and media were removed from the cells, then 50 ul of HTRF lysis buffer was added (lysis buffer was diluted from 4× stock to 1× in DI water, with 1% blocking agent also added). Cells were lysed on a plate shaker (2000 rpm) for 30 minutes at room temperature. pEGFR expression was monitored using the Cisbio Phospho-EGFR (Tyr1068) cellular kit (64EG1PEH). Total EGFR expression was monitored using the Cisbio Total EGFR cellular kit (64NG1PEH) as per manufacturer's instructions. Fluorescence emission was read at two different wavelengths (665 nm and 620 nm) on a PheraStar. Results were calculated as ratio of pEGFR/total EGFR and then percentage of 0 μM control.

Assay [4] concerns the target CtermHisTag-mEGFR Wild type (Homo sapiens, UniProt P00533). Nature of the assay: biochemical.

T1 sequence (P00533 25-1210 T790M/L858R): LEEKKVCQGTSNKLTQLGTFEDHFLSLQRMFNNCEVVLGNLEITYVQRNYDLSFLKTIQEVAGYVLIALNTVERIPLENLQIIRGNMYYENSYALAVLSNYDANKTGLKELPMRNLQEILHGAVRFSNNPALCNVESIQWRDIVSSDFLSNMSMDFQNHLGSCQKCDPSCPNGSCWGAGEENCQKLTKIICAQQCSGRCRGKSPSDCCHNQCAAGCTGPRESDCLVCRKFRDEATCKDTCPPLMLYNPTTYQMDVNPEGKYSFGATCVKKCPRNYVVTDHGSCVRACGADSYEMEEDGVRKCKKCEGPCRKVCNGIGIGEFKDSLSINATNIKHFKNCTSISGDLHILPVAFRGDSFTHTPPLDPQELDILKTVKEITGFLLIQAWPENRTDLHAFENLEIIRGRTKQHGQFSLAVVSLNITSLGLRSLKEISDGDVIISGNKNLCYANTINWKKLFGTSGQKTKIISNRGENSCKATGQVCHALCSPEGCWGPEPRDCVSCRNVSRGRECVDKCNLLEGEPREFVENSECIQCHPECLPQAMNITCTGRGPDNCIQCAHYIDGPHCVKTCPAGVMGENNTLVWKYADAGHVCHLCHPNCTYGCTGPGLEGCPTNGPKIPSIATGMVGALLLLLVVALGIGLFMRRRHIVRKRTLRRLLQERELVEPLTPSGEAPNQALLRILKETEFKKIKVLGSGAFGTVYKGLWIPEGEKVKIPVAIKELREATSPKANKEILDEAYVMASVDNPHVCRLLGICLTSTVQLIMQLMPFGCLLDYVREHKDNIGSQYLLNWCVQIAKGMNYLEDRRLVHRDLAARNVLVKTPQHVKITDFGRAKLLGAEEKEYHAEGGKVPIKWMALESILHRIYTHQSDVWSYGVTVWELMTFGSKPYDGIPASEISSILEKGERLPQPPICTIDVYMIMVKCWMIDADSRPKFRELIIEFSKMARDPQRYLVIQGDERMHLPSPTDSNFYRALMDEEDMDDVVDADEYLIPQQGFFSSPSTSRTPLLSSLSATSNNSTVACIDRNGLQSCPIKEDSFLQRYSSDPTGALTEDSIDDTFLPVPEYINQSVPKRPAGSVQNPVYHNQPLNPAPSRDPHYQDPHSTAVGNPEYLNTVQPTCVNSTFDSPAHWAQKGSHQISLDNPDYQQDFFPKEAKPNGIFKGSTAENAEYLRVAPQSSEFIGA
Sequence of CtermHisTag-mEGFR Wild type (P00533 whole entry): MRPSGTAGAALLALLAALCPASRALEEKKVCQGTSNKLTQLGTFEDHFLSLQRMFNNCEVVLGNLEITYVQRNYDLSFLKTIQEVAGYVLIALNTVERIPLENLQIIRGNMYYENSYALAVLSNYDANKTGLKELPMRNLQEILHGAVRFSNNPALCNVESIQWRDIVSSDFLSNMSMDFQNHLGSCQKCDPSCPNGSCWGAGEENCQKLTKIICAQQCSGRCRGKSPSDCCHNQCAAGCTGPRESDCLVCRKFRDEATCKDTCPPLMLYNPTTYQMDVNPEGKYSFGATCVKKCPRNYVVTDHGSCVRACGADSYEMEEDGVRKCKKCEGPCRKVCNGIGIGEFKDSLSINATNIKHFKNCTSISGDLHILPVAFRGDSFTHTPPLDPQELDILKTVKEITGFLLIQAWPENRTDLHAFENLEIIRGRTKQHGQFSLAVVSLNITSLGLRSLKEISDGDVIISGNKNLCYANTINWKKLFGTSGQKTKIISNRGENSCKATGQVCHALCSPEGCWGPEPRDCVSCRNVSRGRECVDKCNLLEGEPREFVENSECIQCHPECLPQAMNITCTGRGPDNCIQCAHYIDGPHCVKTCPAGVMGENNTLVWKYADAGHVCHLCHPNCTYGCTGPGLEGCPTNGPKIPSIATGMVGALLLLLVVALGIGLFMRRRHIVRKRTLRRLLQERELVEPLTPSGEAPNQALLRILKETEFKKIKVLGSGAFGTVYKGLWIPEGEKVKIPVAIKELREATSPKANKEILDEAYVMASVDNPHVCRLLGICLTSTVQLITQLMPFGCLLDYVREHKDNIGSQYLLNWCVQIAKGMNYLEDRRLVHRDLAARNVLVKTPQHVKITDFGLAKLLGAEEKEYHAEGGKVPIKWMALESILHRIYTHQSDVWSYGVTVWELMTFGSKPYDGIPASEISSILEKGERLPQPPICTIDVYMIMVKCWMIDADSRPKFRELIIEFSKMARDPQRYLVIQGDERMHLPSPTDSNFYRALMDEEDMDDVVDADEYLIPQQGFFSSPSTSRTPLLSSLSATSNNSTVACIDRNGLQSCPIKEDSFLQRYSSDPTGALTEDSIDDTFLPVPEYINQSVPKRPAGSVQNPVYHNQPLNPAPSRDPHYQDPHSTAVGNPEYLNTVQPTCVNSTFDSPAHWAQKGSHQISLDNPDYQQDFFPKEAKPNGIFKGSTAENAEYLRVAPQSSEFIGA

What is called IC50 is the midpoint of a concentration-inhibition curve. On to `C#Cc1cc(=O)n(C2CCNC2=O)c2nc(Nc3ccc(N4CCN(C)CC4)cc3)ncc12` (centres unmarked) [Example 104, 3-(5-ethynyl-2-{[4-(4-methylpiperazin-1-yl)phenyl]amino}-7-oxopyrido[2,3-d]pyrimidin-8-yl)pyrrolidin-2-one], for which the IC50 in assay [1] was below 500 nM; in assay [2], 500 to 1000 nM; in assay [3] it was above 3000 nM; in assay [4] it was above 10000 nM.

For the compound `C#Cc1cc(=O)n2c3nc(ncc13)Nc1ccc(N3CCN(C)CC3)c(c1)COCCCC2` [Example 231, 1^5-Ethynyl-3^4-(4-methylpiperazin-1-yl)-1^7,1^8-dihydro-5-oxa-2-aza-1(2,8)-pyrido[2,3-d]pyrimidina-3(1,3)-benzenacyclononaphan-1^7-one], the IC50 was below 500 nM in assay [1], below 500 nM in assay [2], 1000 to 3000 nM in assay [3] and below 1000 nM in assay [4].

Turning to `C#Cc1cc(=O)n(-c2ccccc2)c2nc(Nc3ccc(C4CCNCC4)cc3)ncc12` [Example 22, 5-Ethynyl-8-phenyl-2-{[4-(piperidin-4-yl)phenyl]amino}pyrido[2,3-d]pyrimidin-7-one], the IC50 in assay [1] is below 500 nM; in assay [2], below 500 nM; in assay [3], above 3000 nM; in assay [4], below 1000 nM.

For `C#Cc1cc(=O)n(C)c2nc(Nc3ccc(N4CCN(C)CC4)c(NC(=O)NC4CCCC4)c3)ncc12` [Example 219, 3-Cyclopentyl-1-[5-({5-ethynyl-8-methyl-7-oxopyrido[2,3-d]pyrimidin-2-yl}amino)-2-(4-methylpiperazin-1-yl)phenyl]urea], the IC50 in assay [1] is 500 to 1000 nM; in assay [2], 500 to 1000 nM; in assay [3], above 3000 nM; in assay [4], below 1000 nM.

For the compound `C#Cc1cc(=O)n(C2CCCC2)c2nc(Nc3ccc(N4CCN(C)CC4)cc3)ncc12` [Example 78, 8-cyclopentyl-5-ethynyl-2-((4-(4-methylpiperazin-1-yl)phenyl)amino)pyrido[2,3-d]pyrimidin-7(8H)-one], the IC50 was below 500 nM in assay [1], below 500 nM in assay [2], above 3000 nM in assay [3] and below 1000 nM in assay [4].

With `C#Cc1cc(=O)n(-c2ccccc2)c2nc(Nc3ccc(N(C)CCN(C)C)c(C)c3)ncc12` [Example 32, 2-[(4-{[2-(Dimethylamino)ethyl](methyl)amino}-3-methylphenyl)amino]-5-ethynyl-8-phenylpyrido[2,3-d]pyrimidin-7-one], the half-maximal inhibitory concentration (IC50) in assay [1] is below 500 nM; in assay [2], below 500 nM; in assay [3], above 3000 nM; in assay [4], below 1000 nM.

Consider `C#Cc1cc(=O)n(-c2ccccc2)c2nc(Nc3ccc(N4CCOCC4)cc3)ncc12` [Example 6, 5-Ethynyl-2-((4-morpholinophenyl)amino)-8-phenylpyrido[2,3-d]pyrimidin-7(8H)-one], for which the IC50 in assay [1] is below 500 nM; in assay [2] it was below 500 nM; in assay [3], 1000 to 3000 nM; in assay [4], below 1000 nM.

Regarding `C#Cc1cc(=O)n(-c2ccccc2)c2nc(Nc3ccc(N4CCNC(C)C4)cc3)ncc12` (centres unmarked) [Example 27, 5-Ethynyl-2-{[4-(3-methylpiperazin-1-yl)phenyl]amino}-8-phenylpyrido[2,3-d]pyrimidin-7-one], the IC50 in assay [1] is below 500 nM; in assay [2] it was below 500 nM; in assay [3], 1000 to 3000 nM; in assay [4], below 1000 nM.

For `C#Cc1c(C)c(=O)n(Cc2ccncc2)c2nc(Nc3ccc(N4CCN(C)CC4)cc3)ncc12` [Example 179, 5-Ethynyl-6-methyl-2-{[4-(4-methylpiperazin-1-yl)phenyl]amino}-8-(pyridin-4-ylmethyl)pyrido[2,3-d]pyrimidin-7-one], the IC50 was 1000 to 3000 nM in assay [1], 1000 to 3000 nM in assay [2], above 3000 nM in assay [3] and 1000 to 10000 nM in assay [4].

Take `C#Cc1cc(=O)n(Cc2ccn(C)n2)c2nc(Nc3ccc(N4CCN(C)CC4)cc3)ncc12` [Example 118, 5-ethynyl-2-{[4-(4-methylpiperazin-1-yl)phenyl]amino}-8-[(1-methylpyrazol-3-yl)methyl]pyrido[2,3-d]pyrimidin-7-one]: the IC50 in assay [1] was below 500 nM; in assay [2] it was below 500 nM; in assay [3], 1000 to 3000 nM; in assay [4], below 1000 nM.

Regarding `C#Cc1c(C)c(=O)n(-c2ccccc2)c2nc(Nc3ccc(N4CCN(C)CC4)cc3)ncc12` [Example 151, 5-Ethynyl-6-methyl-2-{[4-(4-methylpiperazin-1-yl)phenyl]amino}-8-phenylpyrido[2,3-d]pyrimidin-7-one], the IC50 was in the range of 500 to 1000 nM in assay [1], 500 to 1000 nM in assay [2], 1000 to 3000 nM in assay [3] and 1000 to 10000 nM in assay [4].

Consider `C#Cc1cc(=O)n([C@H]2CC[C@@H](NC(=O)CCN(C)C)CC2)c2nc(Nc3ccc(N4CCN(C)CC4)cc3)ncc12` [Example 96, 3-(Dimethylamino)-N-[(1s,4s)-4-(5-ethynyl-2-{[4-(4-methylpiperazin-1-yl)phenyl]amino}-7-oxopyrido[2,3-d]pyrimidin-8-yl)cyclohexyl]propanamide], for which the concentration for half-maximal inhibition (IC50) in assay [1] is 1000 to 3000 nM; in assay [2], above 3000 nM; in assay [3], above 3000 nM; in assay [4] it was below 1000 nM.

For `C#Cc1cc(=O)n(-c2ccccc2)c2nc(Nc3ccc(N4CCN(C)CC4)c(CC)c3)ncc12` [Example 24, 2-{[3-Ethyl-4-(4-methylpiperazin-1-yl)phenyl]amino}-5-ethynyl-8-phenylpyrido[2,3-d]pyrimidin-7-one], the IC50 in assay [1] was below 500 nM; in assay [2], below 500 nM; in assay [3], above 3000 nM; in assay [4] it was below 1000 nM.

Consider `C#Cc1cc(=O)n(C)c2nc(Nc3ccc(N4CCN(C)CC4)c(OCC4CCCC4)c3)ncc12` [Example 211, 2-((3-(Cyclopentylmethoxy)-4-(4-methylpiperazin-1-yl)phenyl)amino)-5-ethynyl-8-methylpyrido[2,3-d]pyrimidin-7(8H)-one], for which the IC50 was below 500 nM in assay [1], below 500 nM in assay [2], above 3000 nM in assay [3] and below 1000 nM in assay [4].

In the case of `C#Cc1cc(=O)n(C)c2nc(Nc3cccc(N(C)CCN(C)C)c3)ncc12` [Example 52, 2-[(3-{[2-(Dimethylamino)ethyl](methyl)amino}phenyl)amino]-5-ethynyl-8-methylpyrido[2,3-d]pyrimidin-7-one], the IC50 in assay [1] is below 500 nM; in assay [2] it was below 500 nM; in assay [3] it was above 3000 nM; in assay [4] it was below 1000 nM.

Turning to `C#Cc1cc(=O)n(C)c2nc(Nc3ccc(N4CCN(C)CC4)c(NC(=O)CC4CCCC4)c3)ncc12` [Example 217, 2-Cyclopentyl-N-(5-((5-ethynyl-8-methyl-7-oxo-7,8-dihydropyrido[2,3-d]pyrimidin-2-yl)amino)-2-(4-methylpiperazin-1-yl)phenyl)acetamide], the IC50 in assay [1] was below 500 nM; in assay [2], below 500 nM; in assay [3], 1000 to 3000 nM; in assay [4] it was below 1000 nM.

`C#Cc1cc(=O)n([C@H]2CC[C@@H](NC(=O)CCC(=O)N(C)C)CC2)c2nc(Nc3ccc(N4CCN(C)CC4)cc3)ncc12` [Example 93, N,N-Dimethyl-N′-[(1s,4s)-4-(5-ethynyl-2-{[4-(4-methylpiperazin-1-yl)phenyl]amino}-7-oxopyrido[2,3-d]pyrimidin-8-yl)cyclohexyl]succinamide]: the IC50 in assay [1] was 500 to 1000 nM; in assay [2], 1000 to 3000 nM; in assay [3], above 3000 nM; in assay [4] it was 1000 to 10000 nM.

(Values after patent publication US20260137703A1, “2-AMINO-PYRIDO[2,3-D]PYRIMIDIN-7(8H)-ONE AND 7-AMINO-1-PYRIMIDO[4,5-D]PYRIMIDIN-2(1 H)-ONE DERIVATIVES AS EGFR INHIBITORS FOR THE TREATMENT OF CANCER” (Cancer Research Technology Limited, priority 2022, published 2026).)
